In ChEMBL document CHEMBL1201862, “PubChem BioAssay data set” (2004):
Activity calls are given as the source filed them.

Assays:
[1] = microbe, parasite or virus in culture; type: functional; conditions: Mycobacterium tuberculosis
[2] = M. tuberculosis growth inhibition, HTS (AID 449762); type: functional
[3] = target: DNA damage-inducible transcript 3 protein (Mus musculus, UniProt P35639); type: functional, Cricetulus griseus
14-3-3 protein gamma = 14-3-3 protein gamma (Homo sapiens, UniProt P61981); assay: modulators of 14-3-3 gamma client binding – dose response (AID 711); type: functional
Sequence of 14-3-3 protein gamma (P61981 whole entry): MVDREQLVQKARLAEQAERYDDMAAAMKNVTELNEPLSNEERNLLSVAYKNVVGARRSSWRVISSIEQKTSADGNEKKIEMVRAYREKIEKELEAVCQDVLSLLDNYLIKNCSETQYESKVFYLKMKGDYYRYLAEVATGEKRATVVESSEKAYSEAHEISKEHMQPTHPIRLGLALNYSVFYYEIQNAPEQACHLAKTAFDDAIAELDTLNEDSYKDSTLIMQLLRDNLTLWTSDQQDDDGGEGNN

[4] = target: Long-chain-fatty-acid--AMP ligase FadD28 (Mycobacterium tuberculosis, UniProt P9WQ59); assay: Fluorescence polarization aasay to screen for inhibitors that compete for the binding of FadD28 to a bisubstrate Measured in Biochemical System Using Plate Reader - 2147-01_Inhibitor_Dose_CherryPick_Activity.; type: functional, Mycobacterium tuberculosis H37Rv
Sequence of Long-chain-fatty-acid--AMP ligase FadD28 (P9WQ59 whole entry): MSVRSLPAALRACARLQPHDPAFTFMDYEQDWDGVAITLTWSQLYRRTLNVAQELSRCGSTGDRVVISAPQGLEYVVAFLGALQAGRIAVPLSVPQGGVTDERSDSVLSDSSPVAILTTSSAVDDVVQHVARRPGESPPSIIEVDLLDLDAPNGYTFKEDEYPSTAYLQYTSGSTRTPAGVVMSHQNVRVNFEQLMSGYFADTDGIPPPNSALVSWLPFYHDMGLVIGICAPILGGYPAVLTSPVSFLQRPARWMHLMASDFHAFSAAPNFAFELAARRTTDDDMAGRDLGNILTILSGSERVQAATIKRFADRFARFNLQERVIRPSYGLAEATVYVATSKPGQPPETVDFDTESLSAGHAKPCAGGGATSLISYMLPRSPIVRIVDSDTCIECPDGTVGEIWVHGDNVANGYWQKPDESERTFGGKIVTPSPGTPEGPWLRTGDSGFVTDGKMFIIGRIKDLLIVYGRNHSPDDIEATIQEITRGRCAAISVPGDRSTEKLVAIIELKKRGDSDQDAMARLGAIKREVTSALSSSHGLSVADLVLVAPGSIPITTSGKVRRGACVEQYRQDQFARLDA

[5] = target: T1, Polyadenylate-binding protein 1 (Homo sapiens, UniProt P11940); assay: PABP1 MLLE–PAM2 binding inhibitor potency, dose response, biochemical, fluorescence polarization, FITC-PAM2 peptide (AID 602259); type: functional; conditions: read-out: IC50_Mean
T1 sequence (P11940 whole entry): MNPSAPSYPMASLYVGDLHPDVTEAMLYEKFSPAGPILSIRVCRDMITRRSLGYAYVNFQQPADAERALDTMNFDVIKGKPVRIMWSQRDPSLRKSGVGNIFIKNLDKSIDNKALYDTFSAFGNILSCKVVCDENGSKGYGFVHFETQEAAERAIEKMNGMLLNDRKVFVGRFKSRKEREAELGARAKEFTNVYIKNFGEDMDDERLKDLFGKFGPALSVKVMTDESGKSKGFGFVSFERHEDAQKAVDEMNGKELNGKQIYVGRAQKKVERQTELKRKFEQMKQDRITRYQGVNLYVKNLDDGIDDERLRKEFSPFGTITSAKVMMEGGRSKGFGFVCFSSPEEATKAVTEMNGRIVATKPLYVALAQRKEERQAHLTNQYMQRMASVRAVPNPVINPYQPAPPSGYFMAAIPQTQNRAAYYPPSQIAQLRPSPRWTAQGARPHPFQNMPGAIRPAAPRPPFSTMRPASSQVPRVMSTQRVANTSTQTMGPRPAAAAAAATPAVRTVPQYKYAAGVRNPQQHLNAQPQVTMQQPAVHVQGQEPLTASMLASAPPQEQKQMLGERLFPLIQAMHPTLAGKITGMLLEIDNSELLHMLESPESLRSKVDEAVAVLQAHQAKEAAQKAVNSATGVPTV

Protein Rev = target: T2, Protein Rev (Human immunodeficiency virus type 1 group M subtype B (isolate HXB2)(HIV-1), UniProt P04618); assay: inhibitors of Rev binding to RRE RNA, dose response, biochemical, fluorescence polarization, HIV-1 (AID 434976); set-up: species or system Human immunodeficiency virus 1
T2 sequence (P04618 whole entry): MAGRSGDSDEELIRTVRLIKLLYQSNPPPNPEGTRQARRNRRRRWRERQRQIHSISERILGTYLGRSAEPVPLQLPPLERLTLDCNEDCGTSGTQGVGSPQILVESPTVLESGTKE

[6] = target: T1, Polyadenylate-binding protein 1; assay: PABP1 MLLE–PAM2 interaction inhibitors, dose response, miRNA deadenylation inhibitor project, biochemical, fluorescence polarization, Cy5-PAM2 peptide, secondary (AID 602260); type: functional; conditions: read-out: IC50_Mean
[7] = target: T3, Female germline-specific tumor suppressor gld-1 (Caenorhabditis elegans, UniProt Q17339); assay: inhibitors of GLD-1 binding to TGE RNA, dose response, biochemical, fluorescence polarization, C. elegans (AID 2802);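 further: fluorescence polarization of labeled TGE RNA bound by purified gld-1 protein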
T3 sequence (Q17339 whole entry): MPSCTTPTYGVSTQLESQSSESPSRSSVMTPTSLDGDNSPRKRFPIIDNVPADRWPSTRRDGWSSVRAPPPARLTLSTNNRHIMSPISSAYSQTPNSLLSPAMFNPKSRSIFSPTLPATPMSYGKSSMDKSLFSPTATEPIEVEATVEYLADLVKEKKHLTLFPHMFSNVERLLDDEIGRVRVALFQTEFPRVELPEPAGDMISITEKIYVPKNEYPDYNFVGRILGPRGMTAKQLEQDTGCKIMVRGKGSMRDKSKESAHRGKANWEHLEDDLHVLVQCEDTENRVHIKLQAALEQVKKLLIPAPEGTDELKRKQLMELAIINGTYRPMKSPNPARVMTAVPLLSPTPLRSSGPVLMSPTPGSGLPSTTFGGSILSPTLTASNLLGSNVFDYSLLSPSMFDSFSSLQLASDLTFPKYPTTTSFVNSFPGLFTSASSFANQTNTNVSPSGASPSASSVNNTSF

[8] = target: Aryl hydrocarbon receptor (Homo sapiens, UniProt P35869); assay: Luminescence-based cell-based high throughput dose response assay for activators of the Aryl Hydrocarbon Receptor (AHR). [Related pubchem assays: 2796 (Primary screen (AHR activators in singlicate)), 2845 (Confirmation screen (AHR activators in triplicate)), 434939 (Counterscreen (PXR activators in triplicate)), 2804 (Summary (AHR activators))]; type: ADME
Sequence of Aryl hydrocarbon receptor (P35869 whole entry): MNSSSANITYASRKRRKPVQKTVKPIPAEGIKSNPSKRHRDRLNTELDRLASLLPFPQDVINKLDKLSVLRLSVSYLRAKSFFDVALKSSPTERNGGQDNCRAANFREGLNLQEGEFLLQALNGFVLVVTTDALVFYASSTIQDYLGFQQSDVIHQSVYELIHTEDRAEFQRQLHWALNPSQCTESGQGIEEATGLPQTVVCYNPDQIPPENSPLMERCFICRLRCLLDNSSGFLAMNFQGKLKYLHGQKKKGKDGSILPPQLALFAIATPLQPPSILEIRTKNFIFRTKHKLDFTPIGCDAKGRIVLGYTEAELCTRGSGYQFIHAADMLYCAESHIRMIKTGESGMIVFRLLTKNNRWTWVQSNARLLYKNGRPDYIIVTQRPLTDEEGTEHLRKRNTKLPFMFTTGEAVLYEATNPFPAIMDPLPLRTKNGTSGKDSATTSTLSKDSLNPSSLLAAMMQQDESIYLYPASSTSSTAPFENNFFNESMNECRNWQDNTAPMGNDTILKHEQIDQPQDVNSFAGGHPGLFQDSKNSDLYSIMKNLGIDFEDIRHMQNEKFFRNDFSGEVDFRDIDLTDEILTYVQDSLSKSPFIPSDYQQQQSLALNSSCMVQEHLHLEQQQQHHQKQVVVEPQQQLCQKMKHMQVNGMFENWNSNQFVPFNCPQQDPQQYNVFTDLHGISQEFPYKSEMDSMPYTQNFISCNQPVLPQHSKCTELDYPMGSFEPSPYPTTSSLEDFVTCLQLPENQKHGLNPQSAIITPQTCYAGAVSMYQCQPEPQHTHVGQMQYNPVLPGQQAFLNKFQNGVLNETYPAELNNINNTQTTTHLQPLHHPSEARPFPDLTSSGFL

[9] = target: T4, Tyrosine-protein phosphatase non-receptor type 7 (Homo sapiens, UniProt P35236); assay: inhibitors of human HePTP phosphatase, […], biochemical, absorbance, leukemia target (AID 521); type: functional
T4 sequence (P35236 whole entry): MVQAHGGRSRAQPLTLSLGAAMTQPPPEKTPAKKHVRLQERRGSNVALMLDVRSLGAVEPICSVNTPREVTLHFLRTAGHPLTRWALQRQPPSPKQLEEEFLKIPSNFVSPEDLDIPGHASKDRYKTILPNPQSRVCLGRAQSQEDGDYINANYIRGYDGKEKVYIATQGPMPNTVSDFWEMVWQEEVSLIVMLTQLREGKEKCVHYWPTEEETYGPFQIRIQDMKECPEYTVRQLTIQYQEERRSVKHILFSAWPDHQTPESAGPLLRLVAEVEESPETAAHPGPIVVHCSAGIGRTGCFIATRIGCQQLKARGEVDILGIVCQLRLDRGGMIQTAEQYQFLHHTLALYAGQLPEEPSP

Sequence of DNA damage-inducible transcript 3 protein (P35639 whole entry): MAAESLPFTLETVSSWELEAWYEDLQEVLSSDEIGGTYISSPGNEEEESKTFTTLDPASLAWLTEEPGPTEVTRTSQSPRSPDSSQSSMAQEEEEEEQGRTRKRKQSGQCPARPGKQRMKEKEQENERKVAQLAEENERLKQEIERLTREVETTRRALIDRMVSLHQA

CCOc1ccc(/C=C/C2=Cc3c(sc(NC(=O)CSc4n[nH]c(N)n4)c3C#N)C(C)(C)C2)cc1
CC50 [1]: 8.74 µM (active) | IC50 [2]: > 100 µM (active) | Absolute IC50 (CHOP) [3]: < 10 µM

CCn1c(CSc2nccn2C)nc2cc(C(=O)O)ccc21
IC50 (14-3-3 protein gamma): > 50 µM (not active) | AC50 [4]: > 100 µM (inactive) | IC50 [5]: 36.7 µM (inactive) | IC50 (Protein Rev): 19.7 µM (not active) | IC50 [6]: 62.1 µM (inactive) | IC50 [7]: 14.9 µM (inactive)

COCC(=O)Nc1nnc(-c2cccs2)s1
EC50 [8]: 6.26 µM (active)

CCOC(=O)COc1ccc(C2NC(C(=O)O)CS2)cc1 (stereo unspecified)
IC50 [9]: > 100 µM (not active)
